The target of assay [1] is T1, CDK7 (Homo sapiens, UniProt P50613).
T1 construct: purchased Life Technologies (assay service)
The assay is described as follows: Adapta kinase assay (Life Technologies), CDK7. Conditions: Table 1C, co-factors cyclin H and MNAT1, read-out: CDK7 IC50. The format is biochemical.

The subject of assay [2] is Jurkat cells. The assay is described as follows: Cell proliferation (CellTiter-Glo, 72 hour), Jurkat. The following applies: Homo sapiens, blood cancer cell line. It counts as cell-based. Background: Cellular ATP, detected with luciferase, serves as a proxy for viable cell number.

T1 sequence (P50613 whole entry): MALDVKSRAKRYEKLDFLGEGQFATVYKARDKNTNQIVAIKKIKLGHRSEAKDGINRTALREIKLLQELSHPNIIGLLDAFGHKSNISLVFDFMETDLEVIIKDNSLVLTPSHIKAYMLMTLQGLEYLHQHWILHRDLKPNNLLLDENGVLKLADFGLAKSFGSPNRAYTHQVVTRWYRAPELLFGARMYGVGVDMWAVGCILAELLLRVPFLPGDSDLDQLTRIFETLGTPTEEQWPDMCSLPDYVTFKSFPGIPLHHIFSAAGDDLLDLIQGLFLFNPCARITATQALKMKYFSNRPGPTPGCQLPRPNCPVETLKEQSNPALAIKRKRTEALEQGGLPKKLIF
T1 sequence (P51946 whole entry partner): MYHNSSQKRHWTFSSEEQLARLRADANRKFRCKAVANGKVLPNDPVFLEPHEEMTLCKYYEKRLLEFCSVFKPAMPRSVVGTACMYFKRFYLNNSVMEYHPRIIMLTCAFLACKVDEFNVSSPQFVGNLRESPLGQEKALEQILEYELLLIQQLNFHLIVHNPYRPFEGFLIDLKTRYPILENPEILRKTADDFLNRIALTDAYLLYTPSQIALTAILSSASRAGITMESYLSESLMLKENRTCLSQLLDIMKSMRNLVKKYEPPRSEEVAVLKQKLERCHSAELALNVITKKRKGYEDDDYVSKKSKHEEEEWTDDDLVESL
T1 sequence (P51948 whole entry partner): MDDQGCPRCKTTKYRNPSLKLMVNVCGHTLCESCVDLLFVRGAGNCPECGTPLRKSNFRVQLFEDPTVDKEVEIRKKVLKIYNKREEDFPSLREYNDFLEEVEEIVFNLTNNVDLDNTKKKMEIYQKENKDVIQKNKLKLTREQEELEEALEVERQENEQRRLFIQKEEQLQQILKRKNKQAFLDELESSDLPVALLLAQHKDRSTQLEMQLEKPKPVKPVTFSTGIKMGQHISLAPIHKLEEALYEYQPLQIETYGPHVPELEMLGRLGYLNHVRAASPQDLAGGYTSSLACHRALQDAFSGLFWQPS

A word on the IC50: it is the concentration that gives 50% inhibition. In the case of `CN(C)C/C=C/C(=O)Nc1ccc(C(=O)NC2CC(Nc3ncc(Cl)c(-c4c[nH]c5ccccc45)n3)CC(F)(F)C2)cc1` (racemic) [Compound 122, (+/−)-N-(5-(5-chloro-4-(1H-indol-3-yl)pyrimidin-2-ylamino)-3,3-difluorocyclohexyl)-4-((E)-4-(dimethylamino)but-2-enamido)benzamide], the figures for the 50% inhibitory concentration (IC50) in assay [1] and in assay [2] were less than 0.1 µM and less than 0.5 µM, respectively.
With `CN(C)C/C=C/C(=O)Nc1ccc(C(=O)NC23CC4CC(C2)CC(Nc2ncc(Cl)c(-c5c[nH]c6ccccc56)n2)(C4)C3)cc1` [Compound 108, (E)-N-(3-(5-chloro-4-(1H-indol-3-yl)pyrimidin-2-ylamino)tricyclo[3.3.1.1^3,7]decanyl)-4-(4-(dimethylamino)but-2-enamido)benzamide], the IC50 in assay [1] is 0.1 to 1 µM; in assay [2], 0.5 to 5 µM.
Take `O=C(/C=C/CN1CCOCC1)Nc1ccc(C(=O)N[C@H]2CCC[C@@H](Nc3ncc(Cl)c(-c4c[nH]c5ccccc45)n3)C2)cc1` [Compound 110, N-((1S,3R)-3-(5-chloro-4-(1H-indol-3-yl)pyrimidin-2-ylamino)cyclohexyl)-4-((E)-4-morpholinobut-2-enamido)benzamide]: the IC50 in assay [1] is less than 0.1 µM; in assay [2], less than 0.5 µM.
For the compound `CN1CCN(C/C=C/C(=O)Nc2ccc(C(=O)N[C@H]3CCC[C@@H](Nc4ncc(Cl)c(-c5c[nH]c6ccccc56)n4)C3)cc2)CC1` [Compound 111, N-((1S,3R)-3-(5-chloro-4-(1H-indol-3-yl)pyrimidin-2-ylamino)cyclohexyl)-4-((E)-4-(4-methylpiperazin-1-yl)but-2-enamido)benzamide], the IC50 in assay [1] was less than 0.1 µM; in assay [2], less than 0.5 µM.
The matching figures for `C=CC(=O)Nc1ccc(C(=O)N[C@H]2CCC[C@@H](Nc3ncc(Cl)c(-c4c[nH]c5ccccc45)n3)C2)cc1` [Compound 112, 4-acrylamido-N-((1S,3R)-3-(5-chloro-4-(1H-indol-3-yl)pyrimidin-2-ylamino)cyclohexyl)benzamide]: less than 0.1 µM and less than 0.5 µM.
On the same counts, the results for `C=C(C)C(=O)Nc1ccc(C(=O)N[C@H]2CCC[C@@H](Nc3ncc(Cl)c(-c4c[nH]c5ccccc45)n3)C2)cc1` [Compound 113, N-((1S,3R)-3-(5-chloro-4-(1H-indol-3-yl)pyrimidin-2-ylamino)cyclohexyl)-4-methacrylamidobenzamide] are 0.1 to 1 µM and 0.5 to 5 µM.
The matching figures for `CN(C)C/C=C/C(=O)Nc1ccc(NC(=O)[C@H]2CCC[C@@H](Nc3ncc(Cl)c(-c4c[nH]c5ccccc45)n3)C2)cc1` [Compound 114, (1S,3R,E)-3-(5-chloro-4-(1H-indol-3-yl)pyrimidin-2-ylamino)-N-(4-(4-(dimethylamino)but-2-enamido)phenyl)cyclohexanecarboxamide]: less than 0.1 µM and less than 0.5 µM.
Take `CN(C)C/C=C/C(=O)Nc1ccc(C(=O)N[C@H]2CCC[C@@H](Nc3ncc(C4CC4)c(-c4c[nH]c5ccccc45)n3)C2)cc1` [Compound 115, N-((1S,3R)-3-(5-cyclopropyl-4-(1H-indol-3-yl)pyrimidin-2-ylamino)cyclohexyl)-4-((E)-4-(dimethylamino)but-2-enamido)benzamide]: the IC50 was less than 0.1 µM in assay [1] and less than 0.5 µM in assay [2].
The matching figures for `CN(C)C/C=C/C(=O)Nc1ccc(C(=O)N[C@H]2CCC[C@@H](Nc3ncc(Cl)c(-c4cccnc4)n3)C2)cc1` [Compound 116, N-((1S,3R)-3-(5-chloro-4-(pyridin-3-yl)pyrimidin-2-ylamino)cyclohexyl)-4-((E)-4-(dimethylamino)but-2-enamido)benzamide]: 0.1 to 1 µM and less than 0.5 µM.
The matching figures for `CN(C)C/C=C/C(=O)Nc1ccc(C(=O)N[C@H]2CCC[C@@H](Nc3ncc(C#N)c(-c4c[nH]c5ccccc45)n3)C2)cc1` [Compound 117, N-((1S,3R)-3-(5-cyano-4-(1H-indol-3-yl)pyrimidin-2-ylamino)cyclohexyl)-4-((E)-4-(dimethylamino)but-2-enamido)benzamide]: less than 0.1 µM and less than 0.5 µM.
For `CC(C)=CC(=O)Nc1ccc(C(=O)N[C@H]2CCC[C@@H](Nc3ncc(Cl)c(-c4c[nH]c5ccccc45)n3)C2)cc1` [Compound 118, N-((1S,3R)-3-(5-chloro-4-(1H-indol-3-yl)pyrimidin-2-ylamino)cyclohexyl)-4-(3-methylbut-2-enamido)benzamide], the IC50 was 0.1 to 1 µM in assay [1] and 0.5 to 5 µM in assay [2].
The matching figures for `CN(C)C/C=C/C(=O)Nc1ccc(C(=O)N[C@@H]2C[C@H](F)C[C@H](Nc3ncc(Cl)c(-c4c[nH]c5ccccc45)n3)C2)cc1` [Compound 120, N-((1S,3R,5R)-3-(5-chloro-4-(1H-indol-3-yl)pyrimidin-2-ylamino)-5-fluorocyclohexyl)-4-((E)-4-(dimethylamino)but-2-enamido)benzamide]: 0.1 to 1 µM and 0.5 to 5 µM.
For `CN(C)C/C=C/C(=O)Nc1ccc(C(=O)NC23CCCC(Nc4ncc(Cl)c(-c5c[nH]c6ccccc56)n4)(C2)C3)cc1` [Compound 121, (E)-N-(5-(5-chloro-4-(1H-indol-3-yl)pyrimidin-2-ylamino)bicyclo[3.1.1]heptan-1-yl)-4-(4-(dimethylamino)but-2-enamido)benzamide], the values for the 50% inhibitory concentration (IC50) in assay [1] and in assay [2] were less than 0.1 µM and less than 0.5 µM, respectively.
The matching figures for `CN(C)C/C=C/C(=O)Nc1ccc(S(=O)(=O)N[C@H]2CCC[C@@H](Nc3ncc(Cl)c(-c4c[nH]c5ccccc45)n3)C2)cc1` [Compound 123, (E)-N-(4-(N-((1S,3R)-3-(5-chloro-4-(1H-indol-3-yl)pyrimidin-2-ylamino)cyclohexyl)sulfamoyl)phenyl)-4-(dimethylamino)but-2-enamide]: 0.1 to 1 µM and less than 0.5 µM.
As to `O=C(/C=C/CO)Nc1ccc(C(=O)N[C@H]2CCC[C@@H](Nc3ncc(Cl)c(-c4c[nH]c5ccccc45)n3)C2)cc1` [Compound 124, N-((1S,3R)-3-(5-chloro-4-(1H-indol-3-yl)pyrimidin-2-ylamino)cyclohexyl)-4-((E)-4-hydroxybut-2-enamido)benzamide], the IC50 was less than 0.1 µM in assay [1] and less than 0.5 µM in assay [2].
Regarding `CN(C)C/C=C/C(=O)Nc1ccc(C(=O)N[C@H]2CCC[C@@H](Nc3ncc(Cl)c(-c4c[nH]c5ccccc45)n3)C2)cc1F` [Compound 126, N-((1S,3R)-3-(5-chloro-4-(1H-indol-3-yl)pyrimidin-2-ylamino)cyclohexyl)-4-((E)-4-(dimethylamino)but-2-enamido)-3-fluorobenzamide], the values for the IC50 in assay [1] and in assay [2] were less than 0.1 µM and less than 0.5 µM, respectively.
The matching figures for `CN(C)C/C=C/C(=O)Nc1ccc(CN(C(=O)OC(C)(C)C)[C@H]2CCC[C@@H](Nc3ncc(Cl)c(-c4c[nH]c5ccccc45)n3)C2)cc1` [Compound 127, tert-butyl (1S,3R)-3-(5-chloro-4-(1H-indol-3-yl)pyrimidin-2-ylamino) cyclohexyl(4-((E)-4-(dimethylamino)but-2-enamido)benzyl)carbamate]: 0.1 to 1 µM and 0.5 to 5 µM.
The matching figures for `CN(C)C/C=C/C(=O)Nc1ccc(CN[C@H]2CCC[C@@H](Nc3ncc(Cl)c(-c4c[nH]c5ccccc45)n3)C2)cc1` [Compound 129, (E)-N-(4-(((1S,3R)-3-(5-chloro-4-(1H-indol-3-yl)pyrimidin-2-ylamino)cyclohexylamino)methyl)phenyl)-4-(dimethylamino)but-2-enamide]: less than 0.1 µM and less than 0.5 µM.
With `C[Si](C)(C)C#CC(=O)Nc1ccc(C(=O)NC23CCCC(Nc4ncc(Cl)c(-c5c[nH]c6ccccc56)n4)(C2)C3)cc1` [Compound 130, N-(5-(5-chloro-4-(1H-indol-3-yl)pyrimidin-2-ylamino)bicyclo[3.1.1]heptan-1-yl)-4-(3-(trimethylsilyl)propiolamido)benzamide], the figures for the IC50 in assay [1] and in assay [2] were less than 0.1 µM and less than 0.5 µM, respectively.
The matching figures for `CN(C/C=C/C(=O)Nc1ccc(C(=O)N[C@H]2CCC[C@@H](Nc3ncc(Cl)c(-c4c[nH]c5ccccc45)n3)C2)cc1)CC(=O)O` [Compound 131, 2-(((E)-4-(4-((1S,3R)-3-(5-chloro-4-(1H-indol-3-yl)pyrimidin-2-ylamino)cyclohexylcarbamoyl)phenylamino)-4-oxobut-2-enyl)(methyl)amino)acetic acid]: less than 0.1 µM and less than 0.5 µM.
The matching figures for `C=CC(=O)Nc1ccc(C(=O)N[C@H]2CCC[C@@H](Nc3ncc(Cl)c(-c4c[nH]c5ccccc45)n3)C2)c(N2CCOCC2)c1` [Compound 133, 4-acrylamido-N-((1S,3R)-3-(5-chloro-4-(1H-indol-3-yl)pyrimidin-2-ylamino)cyclohexyl)-2-morpholinobenzamide]: 0.1 to 1 µM and less than 0.5 µM.
The matching figures for `C=CC(=O)Nc1cccc(C(=O)N[C@H]2CC[C@H](Nc3ncc(Cl)c(-c4c[nH]c5ccccc45)n3)CC2)c1` [Compound 135, 3-acrylamido-N-((trans)-4-(5-chloro-4-(1H-indol-3-yl)pyrimidin-2-ylamino)cyclohexyl)benzamide]: less than 0.1 µM and less than 0.5 µM.
As to `C=CC(=O)Nc1ccc(C(=O)N[C@H]2CCC[C@@H](Nc3ncc(F)c(-c4c[nH]c5ccccc45)n3)C2)cc1` [Compound 137, 4-acrylamido-N-((1S,3R)-3-(5-fluoro-4-(1H-indol-3-yl)pyrimidin-2-ylamino)cyclohexyl)benzamide], the IC50 is 0.1 to 1 µM in assay [1] and less than 0.5 µM in assay [2].
On the same counts, the results for `C=CC(=O)Nc1ccc(C(=O)N[C@H]2CCC[C@@H](Nc3ncc(Cl)c(-c4cnn5ccccc45)n3)C2)cc1` [Compound 138, 4-acrylamido-N-((1S,3R)-3-(5-chloro-4-(pyrazolo[1,5-a]pyridin-3-yl)pyrimidin-2-ylamino)cyclohexyl)benzamide] are less than 0.1 µM and less than 0.5 µM.
With `CN(C)C/C=C/C(=O)Nc1ccc(C(=O)N[C@H]2C[C@@H](Nc3ncc(Cl)c(-c4c[nH]c5ccccc45)n3)CC(F)(F)C2)cc1` [Compound 139], the IC50 in assay [1] was more than 1 µM; in assay [2] it was 0.5 to 5 µM.
With `Cc1nc(C)c(-c2nc(NC3CCCC(NC(=O)c4ccc(NC(=O)/C=C/CN(C)C)cc4)C3)ncc2Cl)s1` (stereo not shown) [Compound 141], the IC50 in assay [1] is less than 0.1 µM; in assay [2] it was less than 0.5 µM.

These data come from patent US10906889B2, “Polycyclic inhibitors of cyclin-dependent kinase 7 (CDK7)” (Dana-Farber Cancer Institute, Inc., priority 2013, dated 2021).
